Several values for one entry are separate records, joined by “and”; a condition that tells them apart may be missing. Equal values may be shown once. Inconclusive results and toxic doses are left out.

This assay deals with L1210 leukemia ip in BDF1 mice, survival T/C. The assay can be described thus: NCI In Vivo Anticancer Drug Screen. Data for tumor model L1210 Leukemia (intraperitoneal) in B6D2F1 (BDF1) mice. Conditions: higher = longer survival. The method in brief:
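Transplantable tumor model; survival measured in treated vs vehicle control mice. Value = treated/control.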

The mark [1] stands for this setting: endpoint: mean survival time, dose: 100.0 mg/kg/injection, schedule: Q04DX003 (ip), vehicle: saline with Tween-80.
The mark [2] stands for this setting: endpoint: mean survival time, dose: 200.0 mg/kg/injection, schedule: Q04DX003 (ip), vehicle: saline with Tween-80.
Setting [3] is: endpoint: mean survival time, dose: 400.0 mg/kg/injection, schedule: Q04DX003 (ip), vehicle: saline with Tween-80.
Setting [4] is: endpoint: mean survival time, dose: 100.0 mg/kg/injection, schedule: Q01DX009 (ip), vehicle: Klucel (hydroxypropylcellulose) (HPC).
[5] abbreviates: endpoint: mean survival time, dose: 200.0 mg/kg/injection, schedule: Q01DX009 (ip), vehicle: Klucel (hydroxypropylcellulose) (HPC).
The mark [6] stands for this setting: endpoint: mean survival time, dose: 100.0 mg/kg/injection, schedule: Q01DX009 (ip), vehicle: saline.
Setting [7] is: endpoint: mean survival time, dose: 200.0 mg/kg/injection, schedule: Q01DX009 (ip), vehicle: saline.
[8] abbreviates: endpoint: mean survival time, dose: 400.0 mg/kg/injection, schedule: Q01DX009 (ip), vehicle: saline.

Turning to `Cc1ccccc1N`, the T/C reads like this: under setting [1], 101 % of control; under setting [2], 103 % of control; under setting [3], 95 % of control.

With `Cc1ccccc1CC1(Br)CC(C)(C)c2ccccc2C1=O` (stereo not given), the T/C by setting is: (endpoint: mean survival time, dose: 100.0 mg/kg/injection, schedule: Q04DX003 (ip), vehicle: Klucel (hydroxypropylcellulose) (HPC)) 93 % of control; (endpoint: mean survival time, dose: 200.0 mg/kg/injection, schedule: Q04DX003 (ip), vehicle: Klucel (hydroxypropylcellulose) (HPC)) 106 % of control; (endpoint: mean survival time, dose: 400.0 mg/kg/injection, schedule: Q04DX003 (ip), vehicle: Klucel (hydroxypropylcellulose) (HPC)) 88 % of control.

Consider `O=C(OC1OCC(OCc2ccccc2)C(OCc2ccccc2)C1OCc1ccccc1)c1ccccc1` (stereo not given), for which the T/C is 94 % of control under setting [1], 94 % of control under setting [2] and 91 % of control under setting [3].

On to `CN(Cc1ccccc1)C(=O)c1ccc(C(=O)N(C)Cc2ccccc2)cc1`, for which the T/C under setting [4] was 97 % of control; the T/C under setting [5] was 108 % of control; the T/C (endpoint: mean survival time, dose: 400.0 mg/kg/injection, schedule: Q01DX009 (ip), vehicle: Klucel (hydroxypropylcellulose) (HPC)) is 102 % of control.

Turning to `N=c1nc2n(cc1F)[C@@H]1O[C@H](CO)[C@@H](O)[C@@H]1O2`, the T/C under setting [4] is 187 % of control; the T/C under setting [5] is 177 % of control; the T/C (endpoint: mean survival time, dose: 400.0 mg/kg/injection, schedule: Q01DX001 (ip), vehicle: Klucel (hydroxypropylcellulose) (HPC)) was 113 % of control; the T/C (endpoint: mean survival time, dose: 400.0 mg/kg/injection, schedule: Q04DX002 (ip), vehicle: Klucel (hydroxypropylcellulose) (HPC)) is 165 % of control and 173 % of control; the T/C (endpoint: mean survival time, dose: 600.0 mg/kg/injection, schedule: Q04DX002 (ip), vehicle: Klucel (hydroxypropylcellulose) (HPC)) is 180 % of control; the T/C (endpoint: mean survival time, dose: 800.0 mg/kg/injection, schedule: Q01DX001 (ip), vehicle: Klucel (hydroxypropylcellulose) (HPC)) was 116 % of control. Moreover, the T/C was 123 % of control (endpoint: mean survival time, dose: 2000.0 mg/kg/injection, schedule: Q01DX001 (ip), vehicle: Klucel (hydroxypropylcellulose) (HPC)); 152 % of control (endpoint: mean survival time, dose: 2000.0 mg/kg/injection, schedule: Q01DX001 (ip), vehicle: saline); 255 % of control (endpoint: median survival time, dose: 25.0 mg/kg/injection, schedule: Q03HX024 (ip), vehicle: water); 175 % of control (endpoint: median survival time, dose: 50.0 mg/kg/injection, schedule: Q01DX009 (ip), vehicle: steriod suspending solution); 610 % of control (endpoint: median survival time, dose: 50.0 mg/kg/injection, schedule: Q03HX024 (ip), vehicle: water); 180 % of control (endpoint: median survival time, dose: 100.0 mg/kg/injection, schedule: Q01DX009 (ip), vehicle: steriod suspending solution). Also, the T/C was 190 % of control (endpoint: median survival time, dose: 100.0 mg/kg/injection, schedule: Q01DX009 (ip), vehicle: water); 390 % of control (endpoint: median survival time, dose: 100.0 mg/kg/injection, schedule: Q03HX024 (ip), vehicle: water); 205 % of control (endpoint: median survival time, dose: 200.0 mg/kg/injection, schedule: Q01DX009 (ip), vehicle: steriod suspending solution); 240 % of control (endpoint: median survival time, dose: 200.0 mg/kg/injection, schedule: Q01DX009 (ip), vehicle: water); 120 % of control (endpoint: median survival time, dose: 400.0 mg/kg/injection, schedule: Q01DX001 (oral), vehicle: water); 340 % of control (endpoint: median survival time, dose: 400.0 mg/kg/injection, schedule: Q01DX009 (ip), vehicle: steriod suspending solution). The T/C runs as follows: (endpoint: median survival time, dose: 400.0 mg/kg/injection, schedule: Q01DX009 (ip), vehicle: water) 450 % of control; (endpoint: median survival time, dose: 800.0 mg/kg/injection, schedule: Q01DX001 (ip), vehicle: water) 150 % of control.

Turning to `COc1cc(Cl)ccc1NC(=O)OCCc1ccccn1`, the T/C runs as follows: under setting [6], 97 % of control; under setting [7], 100 % of control; under setting [8], 97 % of control.

For `CSc1cccc(NC(C)=O)c1`, the T/C runs as follows: under setting [6], 97 % of control; (endpoint: mean survival time, dose: 100.0 mg/kg/injection, schedule: Q04DX003 (ip), vehicle: saline) 93 % of control; under setting [7], 113 % of control; (endpoint: mean survival time, dose: 200.0 mg/kg/injection, schedule: Q04DX003 (ip), vehicle: saline) 97 % of control; under setting [8], 104 % of control; (endpoint: mean survival time, dose: 400.0 mg/kg/injection, schedule: Q04DX003 (ip), vehicle: saline) 101 % of control.

Take `CC(C)=CCN1CCC2(C)c3cc(O)ccc3CC1C2C` (stereo not given): the T/C is 96 % of control (endpoint: mean survival time, dose: 15.62 mg/kg/injection, schedule: Q04DX003 (ip), vehicle: Klucel (hydroxypropylcellulose) (HPC)); 110 % of control (endpoint: mean survival time, dose: 25.0 mg/kg/injection, schedule: Q01DX009 (ip), vehicle: Klucel (hydroxypropylcellulose) (HPC)); 100 % of control (endpoint: mean survival time, dose: 31.25 mg/kg/injection, schedule: Q04DX003 (ip), vehicle: Klucel (hydroxypropylcellulose) (HPC)); 110 % of control (endpoint: mean survival time, dose: 50.0 mg/kg/injection, schedule: Q01DX009 (ip), vehicle: Klucel (hydroxypropylcellulose) (HPC)); 100 % of control (endpoint: mean survival time, dose: 62.5 mg/kg/injection, schedule: Q04DX003 (ip), vehicle: Klucel (hydroxypropylcellulose) (HPC)); 110 % of control under setting [4]. The T/C (endpoint: mean survival time, dose: 125.0 mg/kg/injection, schedule: Q04DX003 (ip), vehicle: Klucel (hydroxypropylcellulose) (HPC)) is 94 % of control; the T/C under setting [5] was 98 % of control; the T/C (endpoint: mean survival time, dose: 250.0 mg/kg/injection, schedule: Q04DX003 (ip), vehicle: Klucel (hydroxypropylcellulose) (HPC)) was 102 % of control.

On to `CC1(C)N=C(N)N=C(N)N1c1ccc(OCCNS(=O)(=O)c2ccc(S(=O)(=O)F)cc2)c(Cl)c1`, for which the T/C under setting [1] was 105 % of control.

Regarding `CSc1ccc(NC(=O)CCl)cc1`, the T/C runs as follows: (endpoint: mean survival time, dose: 25.0 mg/kg/injection, schedule: Q01DX009 (ip), vehicle: saline with Tween-80) 97 % of control; (endpoint: mean survival time, dose: 25.0 mg/kg/injection, schedule: Q04DX003 (ip), vehicle: saline with Tween-80) 97 % of control; (endpoint: mean survival time, dose: 50.0 mg/kg/injection, schedule: Q01DX009 (ip), vehicle: saline with Tween-80) 108 % of control; (endpoint: mean survival time, dose: 50.0 mg/kg/injection, schedule: Q04DX003 (ip), vehicle: saline with Tween-80) 95 % of control; (endpoint: mean survival time, dose: 100.0 mg/kg/injection, schedule: Q01DX009 (ip), vehicle: saline with Tween-80) 100 % of control; under setting [1], 101 % of control.

Take `COc1ncnc2c1ncn2C1CC(CO)C(O)C1O` (stereo not given): the T/C is 102 % of control (endpoint: mean survival time, dose: 25.0 mg/kg/injection, schedule: Q01DX009 (ip), vehicle: saline); 95 % of control (endpoint: mean survival time, dose: 50.0 mg/kg/injection, schedule: Q01DX009 (ip), vehicle: saline); 91 % of control under setting [6].

With `Cc1c(N=Cc2ccccc2)c(=O)n(-c2ccccc2)n1C`, the T/C runs as follows: (endpoint: mean survival time, dose: 100.0 mg/kg/injection, schedule: Q01DX009 (ip), vehicle: gum acacia) 104 % of control; (endpoint: mean survival time, dose: 100.0 mg/kg/injection, schedule: Q04DX003 (ip), vehicle: gum acacia) 100 % of control; (endpoint: mean survival time, dose: 200.0 mg/kg/injection, schedule: Q04DX003 (ip), vehicle: gum acacia) 95 % of control; (endpoint: mean survival time, dose: 400.0 mg/kg/injection, schedule: Q01DX009 (ip), vehicle: gum acacia) 88 % of control; (endpoint: mean survival time, dose: 400.0 mg/kg/injection, schedule: Q04DX003 (ip), vehicle: gum acacia) 95 % of control.

These data come from PubChem BioAssay AID248 (DTP/NCI, 2004).
